Consider 3 molecules from patent publication US20080119477A1, “N-Biaryl and N-Arylheteroaryl Piperazine Derivatives as Modulators of the 5Ht2c Receptor Useful For the Treatment of Disorders Related Thereto” (priority 2004, published 2008).

One assay addresses T1, human 5HT2C receptor (Homo sapiens, UniProt P28335).
T1 construct: expressed in transfected cells; host or cells: HEK293
T1 sequence (P28335 33-458): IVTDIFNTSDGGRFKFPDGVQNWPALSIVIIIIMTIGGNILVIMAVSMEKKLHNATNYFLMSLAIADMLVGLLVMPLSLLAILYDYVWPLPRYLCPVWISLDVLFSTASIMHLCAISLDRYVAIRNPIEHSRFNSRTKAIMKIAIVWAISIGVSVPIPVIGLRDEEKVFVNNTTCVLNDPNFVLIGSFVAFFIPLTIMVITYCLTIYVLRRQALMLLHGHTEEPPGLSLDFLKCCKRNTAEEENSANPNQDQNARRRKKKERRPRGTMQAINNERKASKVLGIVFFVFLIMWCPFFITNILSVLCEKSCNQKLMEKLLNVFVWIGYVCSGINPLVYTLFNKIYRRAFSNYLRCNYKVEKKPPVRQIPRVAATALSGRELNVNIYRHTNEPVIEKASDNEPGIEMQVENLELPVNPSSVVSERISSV
Description: Intracellular IP3 accumulation assay, 5HT2C. The class given is cell-based. The settings on record: HEK293 cells transfected with human 5HT2C receptor cDNA; read-out: 5HT2C (EC50) IP Accumulation Assay. How it is done: Intracellular IP3 Accumulation Assay:
HEK293 cells were transfected in 15 cm sterile dishes with or without (control) 16 ug of human 5HT2C receptor cDNA [for example see, Saltzman, A. G., et al. Biochem. Biophys. Res. Commun. 181, 1469-1478 (1991)] using 25 ul of lipofectamine. Cells were then incubated for 3-4 hours at 37° C./5% CO2 and then transfection media was removed and replaced with 100 ul of DMEM. Cells were then plated onto 100 cm sterile dishes. The next day cells were plated into 96 well PDL microtiter plates at a density of 55 K/0.2 mL. Six hours latter, media was exchanged with [^3H]inositol (0.25 uCi/well) in inositol free DMEM and plates were incubated at 37° C./5% CO2 overnight. The next day, wells were aspirated and 200 ul of DMEM containing test compound, 10 uM pargyline, and 10 mM LiCl was added to appropriate wells. Plates were then incubated at 37° C./5% CO2 for three hours followed aspiration and by addition of fresh ice cold stop solution (1M KOH, 19 mM Na-borate, 3.8 mM EDTA) to each well. Plates were kept on ice for 5-10 min and the wells were neutralized by addition of 200 ul of fresh ice cold neutralization solution (7.5% HCl). Plates were then frozen until further processing is desired. The lysate was then transferred into 1.5 mL Eppendorf tubes and 1 mL of chloroform/methanol (1:2) was added/tube. […]

A further assay deals with 5HT2A receptor (Homo sapiens, UniProt P28223). Description: EC50 against the 5HT2A receptor (selectivity). Type of assay: cell-based.
A further assay has as its target 5HT2B receptor (Homo sapiens, UniProt P41595). As to the kind of experiment: Activity against the 5HT2B receptor (selectivity). Type of assay: cell-based.
Assay [1] deals with amyloid precursor protein (APPs) secretion. The settings on record: guinea pigs, repeat administration; cited from earlier work.

5HT2B receptor, sequence (P41595 whole entry): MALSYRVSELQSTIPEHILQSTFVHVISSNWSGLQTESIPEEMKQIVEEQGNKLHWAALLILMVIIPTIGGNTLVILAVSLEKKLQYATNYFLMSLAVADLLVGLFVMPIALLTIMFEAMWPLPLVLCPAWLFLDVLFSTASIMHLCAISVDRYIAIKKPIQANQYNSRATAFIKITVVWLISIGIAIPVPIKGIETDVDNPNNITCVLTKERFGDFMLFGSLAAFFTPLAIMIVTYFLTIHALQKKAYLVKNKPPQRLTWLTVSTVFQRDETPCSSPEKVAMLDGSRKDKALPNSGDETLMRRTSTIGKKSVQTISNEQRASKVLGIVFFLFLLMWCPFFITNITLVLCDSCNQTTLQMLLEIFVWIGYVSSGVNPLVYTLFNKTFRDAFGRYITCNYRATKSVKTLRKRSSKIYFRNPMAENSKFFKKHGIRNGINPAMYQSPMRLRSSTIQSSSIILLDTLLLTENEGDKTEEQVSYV
5HT2A receptor, sequence (P28223 whole entry): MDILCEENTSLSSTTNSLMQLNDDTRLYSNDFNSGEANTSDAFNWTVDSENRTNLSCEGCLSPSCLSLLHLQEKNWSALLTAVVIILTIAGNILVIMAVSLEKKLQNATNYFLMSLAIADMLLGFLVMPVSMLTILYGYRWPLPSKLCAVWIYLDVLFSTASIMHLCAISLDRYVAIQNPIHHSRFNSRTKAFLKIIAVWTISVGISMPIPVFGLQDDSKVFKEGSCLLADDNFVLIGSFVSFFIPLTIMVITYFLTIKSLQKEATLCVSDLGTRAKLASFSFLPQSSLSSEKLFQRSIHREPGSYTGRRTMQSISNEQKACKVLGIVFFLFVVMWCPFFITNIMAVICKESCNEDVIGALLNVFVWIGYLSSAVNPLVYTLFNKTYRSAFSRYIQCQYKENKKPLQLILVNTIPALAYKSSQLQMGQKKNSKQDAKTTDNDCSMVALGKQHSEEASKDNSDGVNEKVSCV

With `Fc1cc(-c2ccsc2)cc(N2CCNCC2)c1` [Compound 1, 1-(3-Fluoro-5-thiophen-3-yl-phenyl)-piperazine], the EC50 was 7 nM at human 5HT2C receptor and greater than 10000 nM at 5HT2A receptor. Besides, the “activity against the 5HT2B receptor” value at 5HT2B receptor was “essentially inactive”.

For the molecule `Fc1ccc(-c2ccccc2)cc1N1CCNCC1` [Compound 10, 1-(4-Fluoro-biphenyl-3-yl)-piperazine], the concentration for a half-maximal effect (EC50) on human 5HT2C receptor was 21 nM. For the same molecule, the “activity against the 5HT2B receptor” value on 5HT2B receptor is “essentially inactive”.

In the case of `C[C@H](N)Cc1cccc(C(F)(F)F)c1` [dexnorfenfluramine], in assay [1], the “amyloid precursor protein (APPs) secretion” value is “stimulated” and the “levels of Aβ production in vivo” value is given as “reducing levels”.

One may read the EC50 as the concentration needed to bring the measured effect to its halfway point.
